According to patent US20170157135A1 (Novogen Limited, priority 2013, published 2017):

Assays:
Format in all cases: cell-based
[1] = system: CaCo2 colorectal cancer cells; test: Anti-proliferative assay (cell-titre luminescent), CaCo2; settings: Homo sapiens, Caco-2; CaCo2, 72 hours, luminescence
Experimental: (§1) The ability of compounds 2002, 2009 and 2013-2064 to inhibit the proliferation of cancer cells representative of neuroblastoma, melanoma, prostate cancer, colorectal cancer, non-small cell lung carcinoma, and triple negative breast cancer was assessed. These studies were conducted by contract research (GVK-BIO). Briefly, a pre-determined number of cells as calculated from cell growth assays for each of the cell lines employed were seeded into their respective culture medium (using ATCC culture parameters—http://www.atcc.org) and cultured for 24 h at 37° C. and 5% CO2 in 96-well culture plates. Once attached, each cell line was then exposed to various concentrations of each respective analogue (30, 10, 3, 1, 0.3 and 0.1 μM), cultured for a further 72 hours and exposed to cell-titre luminescent reagent (100 μL/well) for a further 30 minutes). Luminescence was captured using an EnVision multilabel reader and the data for each analogue concentration compared against no treatment control. Cell viability was normalized to control (vehicle alone) and dose-response curves, and half maximal effective concentration (EC50) values were determined using Graph Pad Prism 6 (nonlinear regression sigmoidal dose-response variable slope).

[2] = system: MDA-MB-231 breast cancer cells; test: Anti-proliferative assay (cell-titre luminescent), MDA-MB-231; settings: Homo sapiens; MDA-MB-231, 72 hours, luminescence
Experimental: as §1

[3] = system: SK-N-SH neuroblastoma cells; test: Anti-proliferative assay (cell-titre luminescent), SK-N-SH; settings: Homo sapiens, 72 hours, luminescence
Experimental: as §1

A549 lung (NSLC) cells = test: Anti-proliferative assay (cell-titre luminescent), A549; settings: Homo sapiens; A549, 72 hours, luminescence
Experimental: as §1

[4] = system: PC3 prostate cancer cells; test: Anti-proliferative assay (cell-titre luminescent), PC3; settings: PC3, 72 hours, luminescence
Experimental: as §1

SK-Mel-28 melanoma cells = test: Anti-proliferative assay (cell-titre luminescent), SK-Mel-28; settings: Homo sapiens; SK-Mel-28, 72 hours, luminescence
Experimental: as §1

[5] = system: DU145 prostate cancer cells; test: Anti-proliferative assay (cell-titre luminescent), DU145; settings: Homo sapiens, DU-145; DU145, 72 hours, luminescence
Experimental: as §1

SMILES	IC50 [1] [µM]	IC50 [2] [µM]	IC50 [3] [µM]	IC50 (A549 lung (NSLC) cells) [µM]	IC50 [4] [µM]	IC50 (SK-Mel-28 melanoma cells) [µM]	IC50 [5] [µM]
COc1ccc2c(c1)c(/C=C/C(=O)N1CCN(CCc3cccc(F)c3)CC1)c(C)n2CCCN1CCN(C)CC1 [Compound 2032, (E)-1-(4-(3-fluorophenethyl)piperazin-1-yl)-3-(5-methoxy-2-methyl-1-(3-(4-methylpiperazin-1-yl)propyl)-1H-indol-3-yl)prop-2-en-1-one]	5.6	4.9	4.7	9	6.8	4.3	7.7
COc1cccc(CCN2CCN(C(=O)/C=C/c3c(C)n(CCCN4CCN(C)CC4)c4ccc(OC)cc34)CC2)c1 [Compound 2033, (E)-3-(5-methoxy-2-methyl-1-(3-(4-methylpiperazin-1-yl)propyl)-1H-indol-3-yl)-1-(4-(3-methoxyphenethyl)piperazin-1-yl)prop-2-en-1-one]	4.2	4.5	3.3	10.8	6.8	4.2	18.6
COc1ccc2c(c1)c(/C=C/C(=O)N1CCN(CCc3ccccc3)CC1)c(C)n2CCCN1CCN(C)CC1 [Compound 2034, (E)-3-(5-methoxy-2-methyl-1-(3-(4-methylpiperazin-1-yl)propyl)-1H-indol-3-yl)-1-(4-phenethylpiperazin-1-yl)prop-2-en-1-one]	8.1	13.7	10.8	51.3	11.5	16.2	17.2
CCOc1ccc2c(c1)c(/C=C/C(=O)N1CCN(CCc3ccc(F)cc3)CC1)c(C)n2CCCN(C)C [Compound 2035, (E)-3-(1-(3-(dimethylamino)propyl)-5-ethoxy-2-methyl-1H-indol-3-yl)-1-(4-(4-fluorophenethyl)piperazin-1-yl)prop-2-en-1-one]	5.1	3	3.3	8.3	5.6	3.2	6.2
CCOc1ccc2c(c1)c(/C=C/C(=O)N1CCN(CCc3ccc(F)cc3)CC1)c(C)n2CCCN(CC)CC [Compound 2036, (E)-3-(1-(3-(diethylamino)propyl)-5-ethoxy-2-methyl-1H-indol-3-yl)-1-(4-(4-fluorophenethyl)piperazin-1-yl)prop-2-en-1-one]	5.1	4.4	1.5	4.3	4.9	3.2	4.7
CCOc1ccc2c(c1)c(/C=C/C(=O)N1CCN(CCc3ccc(F)cc3)CC1)c(C)n2CCCN1CCN(C)CC1 [Compound 2037, (E)-3-(5-ethoxy-2-methyl-1-(3-(4-methylpiperazin-1-yl)propyl)-1H-indol-3-yl)-1-(4-(4-fluorophenethyl)piperazin-1-yl)prop-2-en-1-one]	4.8	5	3.1	6.6	8.7	2.7	5
Cc1c(C(=O)N2CCN(CCc3ccc(F)cc3)CC2)c2ccccc2n1CCCN(C)C [Compound 2038, (1-(3-(dimethylamino)propyl)-2-methyl-1H-indol-3-yl)(4-(4-fluorophenethyl)piperazin-1-yl)methanone]	> 30	> 30	> 30	> 30	> 30	> 30	> 30
COc1ccc(CCN2CCN(C(=O)c3c(C)n(CCCN(C)C)c4ccccc34)CC2)cc1 [Compound 2039, (1-(3-(dimethylamino)propyl)-2-methyl-1H-indol-3-yl)(4-(4-methoxyphenethyl)piperazin-1-yl)methanone]	4.8	16.6	12.6	44	7.6	11	72.6
Cc1c(C(=O)N2CCN(CCc3ccc4c(c3)OCO4)CC2)c2ccccc2n1CCCN(C)C [Compound 2040, (4-(2-(benzo[d][1,3]dioxol-5-yl)ethyl)piperazin-1-yl)(1-(3-(dimethylamino)propyl)-2-methyl-1H-indol-3-yl)methanone]	> 30	> 30	26.4	> 30	> 30	16.4	> 30
Cc1c(C(=O)N2CCN(CCc3cccc(F)c3)CC2)c2ccccc2n1CCCN(C)C [Compound 2041]	> 30	> 30	13.2	> 30	> 30	17.1	> 30
COc1cccc(CCN2CCN(C(=O)c3c(C)n(CCCN(C)C)c4ccccc34)CC2)c1 [Compound 2042, (1-(3-(dimethylamino)propyl)-2-methyl-1H-indol-3-yl)(4-(3-methoxyphenethyl)piperazin-1-yl)methanone]	> 30	> 30	> 30	> 30	> 30	> 30	> 30
Cc1c(C(=O)N2CCN(CCc3ccccc3)CC2)c2ccccc2n1CCCN(C)C [Compound 2043, (1-(3-(dimethylamino)propyl)-2-methyl-1H-indol-3-yl)(4-phenethylpiperazin-1-yl)methanone]	> 30	> 30	17.4	> 30	> 30	17.2	> 30
COc1ccc2c(c1)c(C(=O)N1CCN(CCc3ccc(F)cc3)CC1)c(C)n2CCCN(C)C [Compound 2044, (1-(3-(dimethylamino)propyl)-5-methoxy-2-methyl-1H-indol-3-yl)(4-(4-fluorophenethyl)piperazin-1-yl)methanone]	11.9	20.4	6.6	12.2	11	6.6	10.1
COc1ccc(CCN2CCN(C(=O)c3c(C)n(CCCN(C)C)c4ccc(OC)cc34)CC2)cc1 [Compound 2045, (1-(3-(dimethylamino)propyl)-5-methoxy-2-methyl-1H-indol-3-yl)(4-(4-methoxyphenethyl)piperazin-1-yl)methanone]	> 30	> 30	> 30	> 30	> 30	> 30	> 30
COc1ccc2c(c1)c(C(=O)N1CCN(CCc3ccc4c(c3)OCO4)CC1)c(C)n2CCCN(C)C [Compound 2046, (4-(2-(benzo[d][1,3]dioxol-5-yl)ethyl)piperazin-1-yl)(1-(3-(dimethylamino)propyl)-5-methoxy-2-methyl-1H-indol-3-yl)methanone]	8	11.3	7.9	14.4	20.3	4.4	13.3
COc1ccc2c(c1)c(C(=O)N1CCN(CCc3cccc(F)c3)CC1)c(C)n2CCCN(C)C [Compound 2047, (1-(3-(dimethylamino)propyl)-5-methoxy-2-methyl-1H-indol-3-yl)(4-(3-fluorophenethyl)piperazin-1-yl)methanone]	8.8	12	10.9	14.3	14.9	13.5	13.6
COc1cccc(CCN2CCN(C(=O)c3c(C)n(CCCN(C)C)c4ccc(OC)cc34)CC2)c1 [Compound 2048, (1-(3-(dimethylamino)propyl)-5-methoxy-2-methyl-1H-indol-3-yl)(4-(3-methoxyphenethyl)piperazin-1-yl)methanone]	> 30	> 30	> 30	> 30	> 30	> 30	> 30
COc1ccc2c(c1)c(C(=O)N1CCN(CCc3ccccc3)CC1)c(C)n2CCCN(C)C [Compound 2049, (1-(3-(dimethylamino)propyl)-5-methoxy-2-methyl-1H-indol-3-yl)(4-phenethylpiperazin-1-yl)methanone]	> 30	7.5	8.9	> 30	8.6	8.7	> 30
CCN(CC)CCCn1c(C)c(C(=O)N2CCN(CCc3ccc(F)cc3)CC2)c2cc(OC)ccc21 [Compound 2050, (1-(3-(diethylamino)propyl)-5-methoxy-2-methyl-1H-indol-3-yl)(4-(4-fluorophenethyl)piperazin-1-yl)methanone]	10.4	14	21.4	19.8	26.4	5.3	15.9
